This is an account of results in patent US20100137313A1 (ASTRAZENECA AB, priority 2008, published 2010).

Sequence of S. pneumoniae Topoisomerase IV ATPase (ParE) (Q59961 whole entry): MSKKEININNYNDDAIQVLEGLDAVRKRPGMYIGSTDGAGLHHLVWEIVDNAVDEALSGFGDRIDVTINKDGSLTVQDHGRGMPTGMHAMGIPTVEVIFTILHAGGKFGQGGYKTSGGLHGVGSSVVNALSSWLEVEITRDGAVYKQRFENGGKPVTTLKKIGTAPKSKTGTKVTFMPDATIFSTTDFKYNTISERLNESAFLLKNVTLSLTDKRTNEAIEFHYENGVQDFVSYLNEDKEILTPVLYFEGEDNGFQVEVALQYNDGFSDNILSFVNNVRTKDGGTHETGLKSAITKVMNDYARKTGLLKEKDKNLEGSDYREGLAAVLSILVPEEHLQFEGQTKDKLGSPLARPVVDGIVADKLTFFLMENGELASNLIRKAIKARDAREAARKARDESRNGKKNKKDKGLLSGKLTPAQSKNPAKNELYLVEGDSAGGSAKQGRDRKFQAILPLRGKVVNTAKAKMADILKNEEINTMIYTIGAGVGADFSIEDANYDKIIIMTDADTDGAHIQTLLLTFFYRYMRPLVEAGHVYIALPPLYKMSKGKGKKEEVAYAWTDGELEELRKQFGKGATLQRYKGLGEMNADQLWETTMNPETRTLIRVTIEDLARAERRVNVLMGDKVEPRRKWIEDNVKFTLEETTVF

The experiment has as its target S. pneumoniae Topoisomerase IV ATPase (ParE) (Streptococcus pneumoniae serotype 4, UniProt Q59961). Nature of the experiment: S. pneumoniae Topoisomerase IV ATPase inhibition. The following applies: values marked * are an average of two or more data points, read-out: % Inh (13 μM) of S. pneumoniae Topoisomerase IV ATPase. The class given is biochemical. Put shortly: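 S. pneumoniae ParE (1.25 nM) ATPase with 160 μM ATP and 5 μg/ml sheared DNA in pH 8.0 Tris, Mg2+, DTT, Brij-35; phosphate detected by malachite green/molybdate at 650 nm. Normalised to 2% DMSO (0%) and 20 μM EDTA (100%); IC50 from 10 concentrations.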
As for `O=C(O)c1cncc(-c2cnc(Nc3ccc(F)c(Cl)c3)nc2N2CCOCC2)c1` [Example 273, 5-(2-(3-chloro-4-fluorophenylamino)-4-morpholinopyrimidin-5-yl)nicotinic acid], the inhibition at 13 µM was 94.4%.

On to `Cc1[nH]ncc1CCCNc1nc(Nc2ccc(F)c(Cl)c2)ncc1-c1cncc(C(=O)O)c1` [Example 274, 5-(2-(3-chloro-4-fluorophenylamino)-4-(3-(5-methyl-1H-pyrazol-4-yl)propylamino)pyrimidin-5-yl)nicotinic acid], for which the inhibition at 13 µM amounted to 88%.

As to `O=C(O)c1cncc(-c2cnc(Nc3ccc(F)c(Cl)c3)nc2N2CCCCC2)c1` [Example 275, 5-(2-(3-chloro-4-fluorophenylamino)-4-(piperidin-1-yl)pyrimidin-5-yl)nicotinic acid], the inhibition at 13 µM came to 134%.

`CC(=O)N1CCN(c2nc(Nc3ccc(F)c(Cl)c3)ncc2-c2cncc(C(=O)O)c2)CC1` [Example 276, 5-(4-(4-acetylpiperazin-1-yl)-2-(3-chloro-4-fluorophenylamino)-pyrimidin-5-yl)nicotinic acid]: the inhibition at 13 µM was 80.3%.

As for `COCCCNc1nc(Nc2ccc(F)c(Cl)c2)ncc1-c1cncc(C(=O)O)c1` [Example 277, 5-(2-(3-chloro-4-fluorophenylamino)-4-(3-methoxypropylamino)-pyrimidin-5-yl)nicotinic acid], the inhibition at 13 µM came to 85.9%.

Consider `Cc1cnc(C(=O)NCCCNc2nc(Nc3ccc(F)c(Cl)c3)ncc2-c2cncc(C(=O)O)c2)cn1` [Example 278], for which the inhibition at 13 µM is 77%.

In the case of `O=C(O)c1cncc(-c2cnc(Nc3ccc(F)c(Cl)c3)nc2N[C@@H]2CCOC2)c1` [Example 279, (R)-5-(2-(3-chloro-4-fluorophenylamino)-4-(tetrahydrofuran-3-ylamino)pyrimidin-5-yl)nicotinic acid], the inhibition at 13 µM came to 80.4%.

Turning to `O=C(O)c1cncc(-c2cnc(Nc3ccc(F)c(Cl)c3)nc2N2CCCC2)c1` [Example 280, 5-(2-(3-chloro-4-fluorophenylamino)-4-(pyrrolidin-1-yl)pyrimidin-5-yl)nicotinic acid], the inhibition at 13 µM came out at 83.4%.

Consider `Cn1cncc1CNc1nc(Nc2ccc(F)c(Cl)c2)ncc1-c1cncc(C(=O)O)c1` [Example 281, 5-(2-(3-chloro-4-fluorophenylamino)-4-((1-methyl-1H-imidazol-5-yl)methylamino)pyrimidin-5-yl)nicotinic acid], for which the inhibition at 13 µM is 95.8%.

Take `Cn1cc(CNc2nc(Nc3ccc(F)c(Cl)c3)ncc2-c2cncc(C(=O)O)c2)cn1` [Example 282, 5-(2-(3-chloro-4-fluorophenylamino)-4-((1-methyl-1H-pyrazol-4-yl)methylamino)pyrimidin-5-yl)nicotinic acid]: the inhibition at 13 µM amounted to 117%.

On to `COCC(COC)Nc1nc(Nc2ccc(F)c(Cl)c2)ncc1-c1cncc(C(=O)O)c1` [Example 283, 5-(2-(3-chloro-4-fluorophenylamino)-4-(1,3-dimethoxypropan-2-ylamino)pyrimidin-5-yl)nicotinic acid], for which the inhibition at 13 µM turned out to be 89.9%.

Take `COCCN1CCN(c2nc(Nc3ccc(F)c(Cl)c3)ncc2-c2cncc(C(=O)O)c2)CC1` [Example 284, 5-(2-(3-chloro-4-fluorophenylamino)-4-(4-(2-methoxyethyl)piperazin-1-yl)pyrimidin-5-yl)nicotinic acid]: the inhibition at 13 µM came out at 69.4%.

As for `CN1CCN(c2nc(Nc3ccc(F)c(Cl)c3)ncc2-c2cncc(C(=O)O)c2)CC1` [Example 285, 5-(2-(3-chloro-4-fluorophenylamino)-4-(4-methylpiperazin-1-yl)pyrimidin-5-yl)nicotinic acid], the inhibition at 13 µM came out at 61.9%.

With `CC1CN(c2nc(Nc3ccc(F)c(Cl)c3)ncc2-c2cccc(/C=C/C(=O)O)c2)CC(C)O1` (stereo not drawn) [Example 286, (E)-3-(3-(2-(3-chloro-4-fluorophenylamino)-4-(2,6-dimethylmorpholin-)-pyrimidin-5-yl)phenyl)acrylic acid], the inhibition at 13 µM worked out at 89.8%.

For the compound `O=C(O)/C=C/c1cccc(-c2cnc(Nc3ccc(F)c(Cl)c3)nc2N2CCN(C(=O)C3CC3)CC2)c1` [Example 287, (E)-3-(3-(2-(3-chloro-4-fluorophenylamino)-4-(4-(cyclopropanecarbonyl)-piperazin-1-yl)pyrimidin-5-yl)phenyl)acrylic acid], the inhibition at 13 µM is 97.2%.

`CC(=O)N1CCN(c2nc(Nc3ccc(F)c(Cl)c3)ncc2-c2cccc(/C=C/C(=O)O)c2)CC1` [Example 288, (E)-3-(3-(4-(4-acetylpiperazin-1-yl)-2-(3-chloro-4-fluorophenylamino)-pyrimidin-5-yl)phenyl)acrylic acid]: the inhibition at 13 µM was found to be 82.9%.

As for `O=C(O)/C=C/c1cccc(-c2cnc(Nc3ccc(F)c(Cl)c3)nc2NCCCc2nc3ccccc3[nH]2)c1` [Example 289, (E)-3-(3-(4-(3-(1H-benzo[d]imidazol-2-yl)propylamino)-2-(3-chloro-4-fluorophenylamino)-pyrimidin-5-yl)phenyl)acrylic acid], the inhibition at 13 µM was found to be 88.2%.

Turning to `O=C(O)/C=C/c1cccc(-c2cnc(Nc3ccc(F)c(Cl)c3)nc2N2CCOCC2)c1` [Example 290, (E)-3-(3-(2-(3-chloro-4-fluorophenylamino)-4-morpholinopyrimidin-5-yl)phenyl)acrylic acid], the inhibition at 13 µM was determined as 80.5%.

With `CN(C)C(=O)N1CCN(c2nc(Nc3ccc(F)c(Cl)c3)ncc2-c2cccc(/C=C/C(=O)O)c2)CC1` [Example 291, (E)-3-(3-(2-(3-chloro-4-fluorophenylamino)-4-(4-(dimethylcarbamoyl)-piperazin-1-yl)pyrimidin-5-yl)phenyl)acrylic acid], the inhibition at 13 µM stood at 90.1%.

Consider `Cc1cnc(C(=O)NCCCNc2nc(Nc3ccc(F)c(Cl)c3)ncc2-c2cccc(/C=C/C(=O)O)c2)cn1` [Example 292, (E)-3-(3-(2-(3-chloro-4-fluorophenylamino)-4-(3-(5-methylpyrazine-2-carboxamido)propylamino)-pyrimidin-5-yl)phenyl)acrylic acid], for which the inhibition at 13 µM came to 81%.

On to `COCCCNc1nc(Nc2ccc(F)c(Cl)c2)ncc1-c1cccc(/C=C/C(=O)O)c1` [Example 293, (E)-3-(3-(2-(3-chloro-4-fluorophenylamino)-4-(3-methoxypropylamino)-pyrimidin-5-yl)phenyl)acrylic acid], for which the inhibition at 13 µM was 85.3%.

In the case of `O=C(O)/C=C/c1cccc(-c2cnc(Nc3ccc(F)c(Cl)c3)nc2N2CCCC2)c1` [Example 294, (E)-3-(3-(2-(3-chloro-4-fluorophenylamino)-4-(pyrrolidin-1-yl)pyrimidin-5-yl)phenyl)acrylic acid], the inhibition at 13 µM is 73.2%.

For the compound `O=C(O)/C=C/c1cccc(-c2cnc(Nc3ccc(F)c(Cl)c3)nc2N[C@@H]2CCOC2)c1` [Example 295, (R,E)-3-(3-(2-(3-chloro-4-fluorophenylamino)-4-(tetrahydrofuran-3-ylamino)pyrimidin-5-yl)phenyl)acrylic acid], the inhibition at 13 µM was determined as 82.7%.

Take `Cn1cncc1CNc1nc(Nc2ccc(F)c(Cl)c2)ncc1-c1cccc(/C=C/C(=O)O)c1` [Example 296, (E)-3-(3-(2-(3-chloro-4-fluorophenylamino)-4-((1-methyl-1H-imidazol-5-yl)methylamino)pyrimidin-5-yl)phenyl)acrylic acid]: the inhibition at 13 µM turned out to be 77.6%.
